Reference: ChEMBL document CHEMBL3784940 (Bioorg Med Chem Lett, 2016)
Calls of active or inactive are those of the source. The calls are words filed in the database; no cut-off is given here.

Experiments:
[1] = Inhibition of Hh signaling pathway in mouse TM3 cells assessed as downregulation of Gli1 gene expression after 48 hrs by luciferase reporter gene assay; format: cell-based; conditions: TM3, 48 h
[2] = Cytotoxicity against mouse TM3 cells assessed as cell viability after 48 hrs by Cell Titer Glo assay; format: cell-based; conditions: read-out: LD50
[3] = Inhibition of Hh signaling pathway in Sufu deficient MEF cells assessed as downregulation of Gli1 mRNA expression at 10 uM after 24 hrs by qRT-PCR analysis; format: cell-based; conditions: Mus musculus
[4] = Inhibition of Hh signaling pathway in Shh-LIGHT2 incorporated mouse NIH 3T3 cells assessed as downregulation of Gli1 gene expression by luciferase reporter gene assay; format: cell-based; conditions: NIH3T3
[5] = Inhibition of Hh signaling pathway in Sufu deficient MEF cells assessed as downregulation of Ptch1 mRNA expression at 10 uM after 24 hrs by qRT-PCR analysis; format: cell-based; conditions: Mus musculus
[6] = molecular target: Protein smoothened (Homo sapiens) (UniProt Q99835); assay: Displacement of BODIPY-cyc from SMO receptor (unknown origin) transfected in HEK293T cells at 200 nM after 16 hrs by laser-scanning confocal microscopic analysis; format: cell-based; conditions: HEK-293T
Sequence of Protein smoothened (Homo sapiens) (Q99835 whole entry): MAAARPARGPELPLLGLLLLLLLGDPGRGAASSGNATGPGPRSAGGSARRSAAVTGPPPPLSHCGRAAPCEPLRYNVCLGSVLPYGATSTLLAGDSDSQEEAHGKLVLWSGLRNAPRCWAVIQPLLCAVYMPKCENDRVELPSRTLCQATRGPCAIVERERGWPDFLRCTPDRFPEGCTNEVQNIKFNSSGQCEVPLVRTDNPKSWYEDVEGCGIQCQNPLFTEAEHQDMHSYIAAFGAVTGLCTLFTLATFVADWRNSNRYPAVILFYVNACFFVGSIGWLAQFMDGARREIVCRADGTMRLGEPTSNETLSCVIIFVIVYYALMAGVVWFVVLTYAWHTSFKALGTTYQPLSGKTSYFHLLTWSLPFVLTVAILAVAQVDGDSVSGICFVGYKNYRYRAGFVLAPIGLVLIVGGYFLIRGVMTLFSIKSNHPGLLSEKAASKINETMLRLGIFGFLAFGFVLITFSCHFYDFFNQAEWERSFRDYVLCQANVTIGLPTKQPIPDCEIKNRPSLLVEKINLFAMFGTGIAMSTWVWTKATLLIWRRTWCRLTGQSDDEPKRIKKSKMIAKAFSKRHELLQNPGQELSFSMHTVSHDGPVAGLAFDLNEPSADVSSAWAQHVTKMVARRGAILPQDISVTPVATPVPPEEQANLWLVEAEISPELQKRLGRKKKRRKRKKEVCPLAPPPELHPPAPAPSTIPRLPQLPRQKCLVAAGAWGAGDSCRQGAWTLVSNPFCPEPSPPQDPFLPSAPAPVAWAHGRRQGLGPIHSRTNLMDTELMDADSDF

[7] = molecular target: Protein smoothened (Homo sapiens) (UniProt Q99835); assay: Displacement of BODIPY-cyc from SMO receptor (unknown origin) transfected in HEK293T cells at 10 uM after 16 hrs by laser-scanning confocal microscopic analysis; format: cell-based; conditions: HEK-293T
[8] = Inhibition of luciferase (unknown origin) expressed in BMP-responsive element stable reporter cells; format: cell-based
[9] = molecular target: 3',5'-cyclic-AMP phosphodiesterase 4D (Homo sapiens, UniProt Q08499); assay: Inhibition of PDE4D (unknown origin) preincubated for 5 mins followed by cAMP addition measured after 15 mins by PDE-Glo phosphodiesterase assay
Sequence of 3',5'-cyclic-AMP phosphodiesterase 4D (Q08499 whole entry): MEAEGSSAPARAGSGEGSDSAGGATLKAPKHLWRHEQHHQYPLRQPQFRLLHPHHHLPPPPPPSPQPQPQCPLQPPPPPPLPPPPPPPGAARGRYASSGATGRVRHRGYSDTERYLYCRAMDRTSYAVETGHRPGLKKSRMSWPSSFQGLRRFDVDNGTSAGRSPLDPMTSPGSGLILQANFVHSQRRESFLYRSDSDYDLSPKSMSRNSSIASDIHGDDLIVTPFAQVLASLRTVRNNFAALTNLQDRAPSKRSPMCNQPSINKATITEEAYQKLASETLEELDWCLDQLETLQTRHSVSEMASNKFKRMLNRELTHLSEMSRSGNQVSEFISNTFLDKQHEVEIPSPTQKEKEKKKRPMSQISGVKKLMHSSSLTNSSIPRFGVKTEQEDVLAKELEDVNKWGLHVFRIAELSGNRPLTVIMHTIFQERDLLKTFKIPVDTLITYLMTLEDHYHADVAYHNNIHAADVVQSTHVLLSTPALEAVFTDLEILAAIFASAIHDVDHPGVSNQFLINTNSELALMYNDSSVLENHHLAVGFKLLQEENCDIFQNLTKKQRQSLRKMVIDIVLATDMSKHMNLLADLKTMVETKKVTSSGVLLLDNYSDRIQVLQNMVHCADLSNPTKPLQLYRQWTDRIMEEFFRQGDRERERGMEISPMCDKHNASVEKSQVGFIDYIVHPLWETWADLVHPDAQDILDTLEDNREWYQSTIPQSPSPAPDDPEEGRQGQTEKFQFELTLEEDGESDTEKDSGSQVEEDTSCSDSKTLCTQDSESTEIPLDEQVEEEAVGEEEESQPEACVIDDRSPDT

[10] = Inhibition of Hh signaling pathway in Sufu deficient MEF cells assessed as downregulation of Gli1 mRNA expression at 0.1 uM after 24 hrs by qRT-PCR analysis; format: cell-based; conditions: Mus musculus
[11] = Inhibition of Hh signaling pathway in Sufu deficient MEF cells assessed as downregulation of Ptch1 mRNA expression at 0.1 uM after 24 hrs by qRT-PCR analysis; format: cell-based; conditions: Mus musculus
[12] = molecular target: Protein smoothened (Homo sapiens) (UniProt Q99835); assay: Displacement of BODIPY-cyc from SMO receptor (unknown origin) transfected in HEK293T cells at 1 uM after 16 hrs by laser-scanning confocal microscopic analysis; format: cell-based; conditions: HEK-293T

Compound	EC50 ([1]; read-out: EC50) [µM]	CC50 at 48 h [2] [µM]	inhibition [3] [%]	inhibition [5] [%]	also measured
CS(=O)(=O)c1ccc(C(=O)Nc2ccc(Cl)c(-c3ccccn3)c2)c(Cl)c1 [VISMODEGIB]	0.013	> 50			
C=C(C)Cn1c(SCC(=O)c2cccs2)nc2sc3c(c2c1=O)CCNC3	6.4	20.1			
O=C(COc1nc2sccc2c(=O)n1C1CC1)c1ccccc1	> 20	> 50			
CN(C)c1ccccc1CN1CCCN(Cc2ccccc2N(C)C)C1c1ccncc1	9.27	> 50	43.8	52.8	EC50 [4]: 5 µM
C=C(C)Cn1c(SCC(=O)c2cccnc2)nc2sc3c(c2c1=O)CCCC3	11.1	35.4			
C=C(C)Cn1c(SCC(=O)c2cccs2)nc2sccc2c1=O	0.931	> 50			
O=C(CNc1nc2sccc2c(=O)n1C1CC1)c1ccccc1	> 20	> 50			
C=C(C)Cn1c(SCC(=O)c2ccncc2)nc2sc3c(c2c1=O)CCCC3	19.8	> 50			
C=C(C)Cn1c(SCC(=O)c2nccs2)nc2sc3c(c2c1=O)CCCC3	> 20	> 50			
C=C(C)Cn1c(SCC(=O)c2cccs2)nc2sc3ccccc3c2c1=O	> 20	> 50			
C=C(C)Cn1c(SCC(=O)c2cccs2)nc2sc3c(c2c1=O)CCSC3	4.57	> 50			
C=C(C)Cn1c(SCC(=O)c2cccs2)nc2sc3c(c2c1=O)CCOC3	> 20	> 50			
C=CCn1c(SCC(=O)c2cccs2)nc2sc3c(c2c1=O)CCCC3	2.36	> 50			
CC1=C2C[C@H]3[C@@H](CC=C4CC(=O)CC[C@@]43C)[C@@H]2CCC12OC1C[C@H](C)CN(CCNC(=O)CCCCCNC(=O)CCc3ccccc3)C1[C@H]2C (single isomer, unassigned)					inhibition [6]: Active
O=C(CSc1nc2sccc2c(=O)n1C1CC1)c1cccs1	0.933	> 50	5.5	-3.3	inhibition [7]: inactive; inhibition [8]: inactive
O=C(CSc1nc2sc3c(c2c(=O)n1CC1CCC1)CCCC3)c1cccs1	1.99	45.6			
O=C(CSc1nc2ccccc2c(=O)n1C1CC1)c1cccs1	0.685	> 50	10.3	9.9	inhibition [7]: inactive; inhibition [8]: inactive

Compound	EC50 ([1]; read-out: EC50) [µM]	CC50 at 48 h [2] [µM]	inhibition [3] [%]	inhibition [5] [%]	also measured
C=C(C)Cn1c(SCC(=O)c2cccs2)nc2sc3c(c2c1=O)CCCC3	1.34	> 50	46.5	32.2	EC50 ([1]; read-out: pEC50 (converted)): < 1 µM; IC50 [9]: 0.38 µM; inhibition [7]: inactive; inhibition [8]: inactive
C=C(C)Cn1c(SCC(=O)c2ccccn2)nc2sc3c(c2c1=O)CCCC3	> 20	> 50			
CC(O)(CSc1nc2sccc2c(=O)n1C1CC1)c1ccccc1 (configuration not stated)	0.948	> 50			
O=C(CSc1nc2sc3c(c2c(=O)n1-c1ccccc1)CCCC3)c1cccs1	8.25	> 50			
C=C(C)Cn1c(SCC(=O)c2ccccc2)nc2sc3c(c2c1=O)CCCC3	5.7	> 50	64.8	60.4	IC50 [9]: 0.965 µM
C=C(C)Cn1c(SCC(=O)c2cccs2)nc2ccccc2c1=O	> 20	> 50			
O=C(CSc1nc2sc3c(c2c(=O)n1CC1CC1)CCCC3)c1cccs1	2.07	> 50			
C=C(C)Cn1c(SCC(=O)N2CCCCC2)nc2sc3c(c2c1=O)CCCC3	10.7	24.6			
C=C(C)Cn1c(SCC(=O)N2CCCCC2C)nc2sc3c(c2c1=O)CCCC3 (configuration not stated)	2.32	16.7	35	49.2	
C=C(C)Cn1c(SCC(=O)N2CCOCC2)nc2sc3c(c2c1=O)CCCC3	> 20	> 50			
O=C(CSc1nc2sc3c(c2c(=O)n1C1CC1)CCCC3)c1cccs1	1.89	> 50	26.8	26.5	
O=c1c2ccsc2nc(SCC(O)c2ccccc2)n1C1CC1 (configuration not stated)		> 50	3.2	-4.8	IC50 [9]: 6.07 µM; inhibition [7]: inactive; inhibition [8]: inactive
Cc1c(C(=O)Nc2ccc(N3C[C@@H](C)O[C@@H](C)C3)nc2)cccc1-c1ccc(OC(F)(F)F)cc1 [SONIDEGIB]	0.0012	> 50			inhibition [10]: 5.8%; inhibition [11]: -0.2%
O=C(CSc1nc2sccc2c(=O)n1C1CC1)c1ccccc1	0.082	> 50	13.6	-0.3	inhibition [8]: inactive; inhibition [12]: inactive
CCCn1c(SCC(=O)c2cccs2)nc2sc3c(c2c1=O)CCCC3	1.3	> 50	44.9	39.9	IC50 [9]: 0.486 µM
O=C(CSc1nc2ccccc2c(=O)n1C1CC1)c1ccccc1	1.16	> 50			
